Reference: the supplement of paper PMC12592484

What was measured:
Test in all cases: drug sensitivity score (DSS2, normalised partial AUC of dose-response, 72 h CellTiter-Glo viability) (DSS (dimensionless)); higher = more sensitive (stronger growth inhibition / cytotoxicity); extreme values may be limits of the assay
[1] = tested on: CAF#6 (primary prostate cancer-associated fibroblasts of iCAF-like type)
How it was run: (§1)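 Viability of low-passage primary prostate cancer-associated fibroblasts, PF179T, WPMY-1, LNCaP and 22Rv1 cells was read by CellTiter-Glo 2.0 luminescence 72 h after seeding onto compounds pre-dispensed in 384-well plates at five doses over a 10,000-fold range. Readings were scaled between vehicle and positive-control wells. Sensitivity is reported as a drug sensitivity score from BREEZE, namely a partial area under the fitted logistic curve divided by the log of its upper asymptote, where higher means more sensitive.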

[2] = tested on: CAF#2 (primary prostate cancer-associated fibroblasts of iCAF-like type)
How it was run: as §1

[3] = tested on: CAF#4 (primary prostate cancer-associated fibroblasts of iCAF-like type)
How it was run: as §1

[4] = tested on: CAF#3 (primary prostate cancer-associated fibroblasts of myCAF-like type)
How it was run: as §1

[5] = tested on: WPMY-1
How it was run: as §1

[6] = tested on: LNCAP
How it was run: as §1

[7] = tested on: CAF#1 (primary prostate cancer-associated fibroblasts of myCAF-like type)
How it was run: as §1

[8] = tested on: 22Rv1
How it was run: as §1

[9] = tested on: CAF#5 (primary prostate cancer-associated fibroblasts of myCAF-like type)
How it was run: as §1

[10] = tested on: PF179T
How it was run: as §1

[11] = tested on: CAF#7 (primary prostate cancer-associated fibroblasts of myCAF-like type)
How it was run: as §1

Row | SMILES | drug sensitivity score [1] | drug sensitivity score [2] | drug sensitivity score [3] | drug sensitivity score [4] | drug sensitivity score [5] | drug sensitivity score [6] | drug sensitivity score [7] | drug sensitivity score [8] | drug sensitivity score [9] | drug sensitivity score [10] | drug sensitivity score [11]
1 | O=C(Nc1cccc(Nc2ncc(Br)c(NCCc3cnc[nH]3)n2)c1)N1CCCC1 [BX-912] (tested concentration range 1-10000 nM) | 6.2 | 7.5 | 3.1 | 7.6 | 9.9 | 3.5 | 6.1 | 1.9 | 8.1 | 7.6 | 10
2 | CCS(=O)(=O)N1CC(CC#N)(n2cc(-c3ncnc4[nH]ccc34)cn2)C1 [Baricitinib] (tested concentration range 0.2-2500 nM) | 0 | 0 | 0 | 0 | 0 | 0 | 0 | 0 | 0 | 0 | 0
3 | O=C(/C=C/c1cccc(S(=O)(=O)Nc2ccccc2)c1)NO [Belinostat] (tested concentration range 1-10000 nM) | 6.8 | 12.3 | 10 | 4.8 | 18.5 | 19.5 | 10 | 19.6 | 8.6 | 9.8 | 6.6
4 | Nc1nc(Nc2ccc3c(c2)CC[C@@H](N2CCCC2)CC3)nn1-c1cc2c(nn1)-c1ccccc1CCC2 [Bemcentinib] (tested concentration range 1-10000 nM) | 5.7 | 3.2 | 1.8 | 8.6 | 8.5 | 5.4 | 2.5 | 5 | 4.1 | 5 | 2.7
5 | N#CC(c1ccnc(OCc2ccc(CN3CCOCC3)cc2)n1)c1nc2ccccc2s1 (centres undefined) [Bentamapimod] (tested concentration range 1-10000 nM) | 0 | 2.6 | 3.4 | 0 | 2.8 | 5.2 | 1.7 | 1.8 | 0 | 0 | 0
6 | C=C(c1ccc(C(=O)O)cc1)c1cc2c(cc1C)C(C)(C)CCC2(C)C [Bexarotene] (tested concentration range 1-10000 nM) | 0 | 10.1 | 3.7 | 0 | 2.1 | 0 | 4.7 | 1.6 | 3.8 | 10.2 | 1.2
7 | CC(O)(CS(=O)(=O)c1ccc(F)cc1)C(=O)Nc1ccc(C#N)c(C(F)(F)F)c1 (centres undefined) [Bicalutamide] (tested concentration range 1-10000 nM) | 1.1 | 1.5 | 0 | 1.4 | 0 | 2.3 | 1.7 | 0.5 | 1.2 | 0.2 | 0.5
8 | CCNC(=O)CCC/C=C\C[C@@H]1[C@@H](/C=C/[C@@H](O)CCc2ccccc2)[C@H](O)C[C@@H]1O [Bimatoprost] (tested concentration range 0.6-5500 nM) | 0 | 0 | 0 | 0.1 | 0 | 0 | 0 | 0 | 0 | 0 | 0
9 | Cn1cnc2c(F)c(Nc3ccc(Br)cc3F)c(C(=O)NOCCO)cc21 [Binimetinib] (tested concentration range 0.1-1000 nM) | 0 | 2.2 | 0 | 0 | 0.9 | 0 | 0 | 8.7 | 0.8 | 0 | 0.2
10 | Cc1sc2c(c1C)C(c1ccc(Cl)cc1)=N[C@@H](CC(=O)Nc1ccc(O)cc1)c1nnc(C)n1-2 [Birabresib] (tested concentration range 1-10000 nM) | 5.1 | 9.9 | 3.4 | 11.8 | 11.9 | 19.8 | 9.4 | 13.4 | 3.1 | 2.8 | 3
11 | CC[C@H](NC(=O)[C@H](C)NC)C(=O)N1C[C@@H](O)C[C@H]1Cc1c(-c2[nH]c3cc(F)ccc3c2C[C@@H]2C[C@H](O)CN2C(=O)[C@H](CC)NC(=O)[C@H](C)NC)[nH]c2cc(F)ccc12 [Birinapant] (tested concentration range 0.1-1000 nM) | 0.8 | 0 | 0 | 0 | 0 | 0.1 | 0 | 0 | 0 | 0 | 0
12 | Cc1c(N)nc([C@H](CC(N)=O)NC[C@H](N)C(N)=O)nc1C(=O)N[C@H](C(=O)N[C@H](C)[C@@H](O)[C@H](C)C(=O)N[C@H](C(=O)NCCc1nc(-c2nc(C(=O)NCCC[S+](C)C)cs2)cs1)[C@@H](C)O)[C@@H](OC1OC(CO)C(O)C(O)C1OC1OC(CO)C(O)C(OC(N)=O)C1O)c1cnc[nH]1 (some centres undefined) [Bleomycin] (tested concentration range 1-10000 nM) | 7.7 | 3.9 | 5.7 | 5.7 | 0.4 | 7.5 | 0.6 | 3.7 | 3.2 | 3.3 | 9.7
13 | CC(C)C[C@H](NC(=O)[C@H](Cc1ccccc1)NC(=O)c1cnccn1)B(O)O [Bortezomib] (tested concentration range 0.1-1000 nM) | 23.7 | 30.1 | 20 | 26.9 | 30.6 | 28.8 | 23.9 | 24.9 | 28.1 | 20.9 | 24.3
14 | COc1cc(Nc2c(C#N)cnc3cc(OCCCN4CCN(C)CC4)c(OC)cc23)c(Cl)cc1Cl [Bosutinib] (tested concentration range 1-10000 nM) | 5.1 | 8.5 | 5.8 | 6.6 | 9.2 | 10.1 | 7.4 | 7.7 | 6.2 | 4.8 | 4.1
15 | COc1cc(N2CCC(N3CCN(C)CC3)CC2)ccc1Nc1ncc(Cl)c(Nc2ccccc2P(C)(C)=O)n1 [Brigatinib] (tested concentration range 0.1-1000 nM) | 3.9 | 3.5 | 2.1 | 3.1 | 2.4 | 0 | 4 | 1.7 | 3.6 | 2.2 | 3
16 | Cc1cc2c(F)c(Oc3ncnn4cc(OC[C@@H](C)O)c(C)c34)ccc2[nH]1 [Brivanib] (tested concentration range 0.1-1000 nM) | 0 | 0 | 0 | 0 | 0 | 1.2 | 0 | 0 | 0 | 0 | 0
17 | CCC/C=C/C=C/C(=O)O[C@H]1/C(=C/C(=O)OC)C[C@H]2C[C@H]([C@@H](C)O)OC(=O)C[C@H](O)C[C@@H]3C[C@H](OC(C)=O)C(C)(C)[C@](O)(C[C@@H]4C/C(=C/C(=O)OC)C[C@H](/C=C/C(C)(C)[C@]1(O)O2)O4)O3 [Bryostatin 1] (tested concentration range 0-100 nM) | 2.6 | 3.4 | 0.5 | 0.6 | 1.3 | 0.1 | 4.2 | 0 | 3 | 0 | 4
18 | Cc1noc2c1-c1ccccc1C(c1ccc(Cl)cc1)=N[C@H]2CC(N)=O [CPI-0610] (tested concentration range 1-10000 nM) | 4.5 | 6.5 | 1.4 | 8.4 | 7.9 | 13 | 7 | 9.2 | 4.1 | 4.1 | 1.8
19 | CO[C@H]1C(=O)[C@]2(C)[C@@H](OC)C[C@H]3OC[C@@]3(OC(C)=O)[C@H]2[C@H](OC(=O)c2ccccc2)[C@]2(O)C[C@H](OC(=O)[C@H](O)[C@@H](NC(=O)OC(C)(C)C)c3ccccc3)C(C)=C1C2(C)C [Cabazitaxel] (tested concentration range 0.1-1000 nM) | 18.4 | 18.1 | 13 | 14.2 | 28.2 | 35.6 | 14.6 | 26.5 | 15.8 | 22.2 | 26.4
20 | COc1cc2nccc(Oc3ccc(NC(=O)C4(C(=O)Nc5ccc(F)cc5)CC4)cc3)c2cc1OC [Cabozantinib] (tested concentration range 0.1-1000 nM) | 3.7 | 7.9 | 3.9 | 5.4 | 3.8 | 7.1 | 4.6 | 0.3 | 7.4 | 4.1 | 5.6
21 | CCCCCOC(=O)Nc1nc(=O)n([C@@H]2O[C@H](C)[C@@H](O)[C@H]2O)cc1F [Capecitabine] (tested concentration range 1-10000 nM) | 0 | 0 | 0 | 0 | 0 | 0 | 0 | 0 | 0 | 0 | 0
22 | NC1(C(=O)N[C@@H](CCO)c2ccc(Cl)cc2)CCN(c2nc[nH]c3nccc2-3)CC1 [Capivasertib] (tested concentration range 1-10000 nM) | 2.7 | 4.1 | 0.3 | 0 | 3 | 23.5 | 4.5 | 7.2 | 3.6 | 4.6 | 2.4
23 | CNC(=O)c1ccc(-c2cnc3ncc(Cc4ccc5ncccc5c4)n3n2)cc1F [Capmatinib] (tested concentration range 0.1-1000 nM) | 0 | 3.1 | 0 | 0 | 0.1 | 0 | 0 | 0 | 0 | 0.4 | 0
24 | O=C(O)C1(C(=O)O)CCC1.[NH2-].[NH2-].[Pt+2] [Carboplatin] (tested concentration range 10-100000 nM) | 1.6 | 8.3 | 5.5 | 2.8 | 7.7 | 5.5 | 4.8 | 6.7 | 5.5 | 6 | 0.4
